“Also recorded” adds a separate entry of the source. Marks after values point to notes of the source that are not given here.
How the values were obtained:
[1] = system: rats, IT SP (spinal NK-1 receptors); assay: IT substance P-evoked thermal hyperalgesia (paw withdrawal latency, Hargreaves device); assay type: in vivo, rat; conditions: for IT SP-induced thermal hyperalgesia (paw withdrawal latency): IT p38α AS 30 μg or p38β AS 20 μg daily for five days, IT SP 30 nmol, compared with MS group; for Base line thermal thresholds: before IT SP, after five days of IT treatment
Method: Yaksh et al., Nature 286: 155-157, 1980; Yaksh, Trends Pharmacol Sci 20: 329-337, 1999. […] Malmberg and Yaksh, Science 257: 1276-1279, 1992; Svensson et al., J Neurochem 86: 1534-1544, 2003. […] To investigate the contribution of p38α and p38β to SP-evoked hyperalgesia and p38 phosphorylation, spinal delivery of p38α and p38β AS and MS was carried out. Thermal withdrawal latencies was assessed after IT injection of SP and lumbar spinal cords collected immediately to compare the degree of spinal p38 phosphorylation at the hypothesized time of peak phosphorylation. IT injection of SP into the MS group produced an expected reduction of thermal withdrawal latency in comparison with IT saline injection into to vehicle treated animals (FIG. 7C). […] In contrast, IT SP-induced thermal hyperalgesia was attenuated in rats which had received p38β AS (FIG. 7E). […] Stripping and reprobing the western blot membranes confirmed that p38α protein expression was knocked down in p38α AS treated group (FIG. 7D) as well as p38β in the p38β AS group (FIG. 7F).
Nociceptive models. To directly induce spinal sensitization, rats received intrathecal injections of sP (30 nmol) which activates spinal NK-1 receptors and produces thermal hyperalgesia. Hua et al., Neuroscience 89: 525-534, 1999a; Piercey et al., Science 214: 1361-1363, 1981; Yashpal and Henry, Can J Physiol Pharmacol 61: 303-307, 1983. Thermally evoked paw withdrawal responses were assessed using a Hargreaves type testing device. Dirig et al., J Neurosci Methods 76: 183-191, 1997. Briefly, rats were placed on a glass surface maintained at 30° C. The thermal nociceptive stimulus originates from a projection bulb below the glass surface, and the stimulus is delivered separately to one hind paw at a time. The animals were allowed to acclimatize on the glass surface and basal paw withdrawal latencies (PWL) were then assessed for left and right paws at time (T)=−40, =30 and −20 min and expressed as the mean of the six measurements. At T=−10 min the animals received intrathecal vehicle or drug and at T=0, sP was injected. Withdrawal latencies were then assessed at T=15, 30, 45 and 60 min. Paw withdrawal latency for each group was expressed as the mean at each time point.

p38β = assay: Western blot of spinal p38β protein expression after IT antisense; assay type: in vivo, rat; conditions: for p38β protein expression, % Expression Compared to Missense: spinal cord at day six, MS=100%, mean ±SEM n=6; for spinal p38β protein expression compared to missense (MS)-treated animals (in words): five days of IT bolus injections, p38β AS 10-20 μg (10 and 20 μg: P<0.05), p38α AS 10-30 μg
Text: It has previously been shown that inhibition of spinal p38 MAP kinase prevents both inflammation-evoked hyperalgesia and nerve injury-induced allodynia. Ji et al., Neuron 36: 57-68, 2002; Schafers et al., J Neurosci 23: 2517-2521, 2003; Svensson et al., Neuroreport 14: 1153-1157, 2003a.; Svensson et al., J Neurochem 86: 1534-1544, 2003b. It still remains to be determined whether only one or both of the p38 isoforms, that are present in the spinal cord, are involved in modulation of spinal nociceptive processing. Since there is no specific p38 isoform inhibitors available, rats were treated intrathecally with isoform specific antisense oligonucleotides (AS) in order to knock down p38α and p38β respectively. […] There were no differences between the AS-, MS- or vehicle-treated groups in terms of weight gain or motor function. The specificity of the effects of these two antisense oligonucleotides was also examined. Western blot membranes were stripped and re-incubated the with the other p38 isoform antibody. […] In Table 1, antisense was given IT once daily for 5 days and protein expression assayed in spinal chord at day six compared to protein level detected in missense treated animals (MS=100%). Each group represents mean ±SEM, n=6 per group. (*) represents P<0.05 as compared to the missense group.
Antisense oligonucleotides. Three oligonucleotides (a kind gift from ISIS Pharmaceuticals Inc.) with lengths of 20 nucleotides were employed in the study: ISIS 101757 (p38α AS) […], beginning at position 1081 in the rat p38α mRNA; ISIS 107211 (p38βAS) […], beginning at position 439 in the rat p38β mRNA; and ISIS141923 (an universe MS control) […]. These oligonucleotides were synthesized as 2′-methoxyethyl (MOE) phosphorothioate chimeric oligonucleotides in which the first and last five bases contained MOE modifications with a uniform phosphorothioate backbone. Butler et al., Diabetes 51: 1028-1034, 2002. The oligonucleotides were dissolved in artificial cerebrospinal fluid (ACSF) immediately prior to intrathecal administration. The ACSF contained (mM) 151.1 Na+, 2.6 K+, 0.9 Mg2+, 1.3 Ca 2+, 122.7 Cl−, 21.0 HCO3, 2.5 HPO4 and was bubbled with 95% O2/5% CO2 before use to adjust the final pH to 7.2. AS and MS (10-30 μg) was administrated in 10 μl ACSF followed by 10 μl saline daily for five days and behavioral experiments and spinal tissue collection performed on day six.
Western blot. Prior to sacrifice, rats were deeply anesthetized and after decapitation the spinal cords were ejected from the vertebral column by a saline-filled syringe. The lumbar part of the spinal cord was immediately homogenized in extraction buffer (50 mM Tris buffer, pH 8.0, containing 0.5% Triton X-100, 150 mM NaCl, 1 mM EDTA, phosphatase and protease inhibitors) by sonication. The tissue extracts were subjected to denaturing NuPAGE 4-12% Bis-Tris gel electrophoresis and then transferred to nitrocellulose membranes (Micronic Separation Inc. Westborough, Mass.). After blocking nonspecific binding sites with 5% low-fat milk in PBS containing 0.1% Tween 20 (PBS-T) for 1 hour in room temperature, the membranes were incubated with antibodies overnight at 4° C. After washing, the antibody-protein complexes were probed with appropriate secondary antibodies labeled with horseradish peroxidase for 1 hr at room temperature and detected with chemiluminescent reagents (SuperSignal, Pierce, Rockford, Ill.). […]

Substance | IT SP-induced thermal hyperalgesia (paw withdrawal latency) [1] | Base line thermal thresholds [1] [s] | p38β protein expression, % Expression Compared to Missense (p38β; IT antisense 30 μg once daily for 5 days) [%] | spinal p38β protein expression compared to missense (MS)-treated animals (in words) (p38β) | p38β protein expression, % Expression Compared to Missense (p38β; IT antisense 10 μg once daily for 5 days) | p38β protein expression, % Expression Compared to Missense (p38β; IT antisense 20 μg once daily for 5 days)
p38α AS: 20-nucleotide 2′-MOE phosphorothioate chimeric antisense AGGTGCTCAGGACTCCATTT, beginning at position 1081 in the rat p38α mRNA (all phosphorothioate, sugars by position and methylation of C not given here; 2'-MOE chimeric (gapmer) antisense) | not affected | 11.49 ± 0.3 | 111 ± 15 | neither p38α AS nor p38β AS produced a reduction of the protein expression of the other isoform |  | 
p38β AS: 20-nucleotide 2′-MOE phosphorothioate chimeric antisense GTATGTCCTCCTCGCGTGGA, beginning at position 439 in the rat p38β mRNA (all phosphorothioate, sugars by position and methylation of C not given here; 2'-MOE chimeric (gapmer) antisense) | attenuated; also recorded: blocked IT SP-evoked thermal hyperalgesia | 10.8 ± 0.5 |  | significant down-regulation; also recorded: knocked down | 45 ± 9* % | 39 ± 12* %
